The source of these data is the supplement of paper PMC11208160.
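Also: IS621 bridge recombinase in Escherichia coli cells against a fixed T5 target plasmid.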

A short description of the series: recombinant UMI read abundance after kanamycin selection (control-corrected) (log10(CPM+1)); higher = more efficient recombination; extreme values may be limits of the assay; sequences stand for … in AGTGCAGAGAAAATCGGCCAGTTTTCTCTGCCTGCAGTCCGCATGCCGTGGGACCCCTTGGGTTCTAACCTGTTGCCTAGATTTATGCAGCGGACTGCCTTTCTCCCAAAGTGATAAACCGG…AGGTTGGTTTCACT; site = the 11-nt donor. The method in brief: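 After plating on IPTG (0.07 mM) plus kanamycin, or unselected, in two replicates, recombinant UMIs were PCR-amplified across the donor–target junction and sequenced. The cells were Escherichia coli co-electroporated with a UMI-tagged donor and donor-binding-loop pair library and a target plasmid with a fixed target and T7-inducible IS621 bridge recombinase. Values are log10(CPM+1), with CPM averaged over replicates and scaled by control-derived factors.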
As for “CTTCTATCATGGACCGGTTTTCCCGGTAATCCGTATTTGTA (site CTTCTTTCTTA)”, the “recombinant UMI read abundance (log10)” value was 0.

Consider “CTTCTCACATGGACCGGTTTTCCCGGTAATCCGTATTTGTA (site CTTCTCACTTA)”, for which the “recombinant UMI read abundance (log10)” value came out at 0.336.

On to “CTTCTCACATGGACCGGTTTTCCCGGTAATCCGTATTTGTA (site CTTCTCCCTTA)”, for which the “recombinant UMI read abundance (log10)” value was found to be 0.00809.

Turning to “CTTCTCACATGGACCGGTTTTCCCGGTAATCCGTATTTGTA (site CTTCTCGCTTA)”, the “recombinant UMI read abundance (log10)” value turned out to be 0.0103.

For “CTTCTCACATGGACCGGTTTTCCCGGTAATCCGTATTTGTA (site CTTCTCTCTTA)”, the “recombinant UMI read abundance (log10)” value is 0.

“CTTCTCTCATGGACCGGTTTTCCCGGTAATCCGTATTTGCA (site CTTCTCTCTTA)”: the “recombinant UMI read abundance (log10)” value amounted to 0.866.

For the sequence “CTTCTCTCATGGACCGGTTTTCCCGGTAATCCGTATTTGCA (site CTTCTCTCTTC)”, the “recombinant UMI read abundance (log10)” value was found to be 0.

“CTTCTCTCATGGACCGGTTTTCCCGGTAATCCGTATTTGCA (site CTTCTCTCTTG)”: the “recombinant UMI read abundance (log10)” value stood at 2.46.

Take “CTTCTCTCATGGACCGGTTTTCCCGGTAATCCGTATTTGCA (site CTTCTCTCTTT)”: the “recombinant UMI read abundance (log10)” value came out at 0.83.

In the case of “CTTCTCTCATGGACCGGTTTTCCCGGTAATCCGTATTTGCT (site CTTCTCTCTAG)”, the “recombinant UMI read abundance (log10)” value came out at 2.48.

Turning to “CTTCTGCCATGGACCGGTTTTCCCGGTAATCCGTATTTGGG (site CTTCTGCCTCC)”, the “recombinant UMI read abundance (log10)” value stood at 0.0114.

As to “CTTGACTCATGGACCGGTTTTCCCGGTAATCCGTATTTGTA (site CTTGACTCTTA)”, the “recombinant UMI read abundance (log10)” value came out at 2.26.

With “CTTGAGACATGGACCGGTTTTCCCGGTAATCCGTATTTGGT (site ATTGAGACTAC)”, the “recombinant UMI read abundance (log10)” value came to 0.141.

For “CTTGAGACATGGACCGGTTTTCCCGGTAATCCGTATTTGGT (site CTTGAGACTAC)”, the “recombinant UMI read abundance (log10)” value was found to be 1.03.

For the sequence “CTTGAGACATGGACCGGTTTTCCCGGTAATCCGTATTTGGT (site GTTGAGACTAC)”, the “recombinant UMI read abundance (log10)” value came out at 0.00699.

In the case of “CTTGAGACATGGACCGGTTTTCCCGGTAATCCGTATTTGGT (site TTTGAGACTAC)”, the “recombinant UMI read abundance (log10)” value was determined as 0.00972.

As for “CTTGCATCATGGACCGGTTTTCCCGGTAATCCGTATTTGAT (site CTTGCATCTAT)”, the “recombinant UMI read abundance (log10)” value was 0.497.

For “CTTGCGGCATGGACCGGTTTTCCCGGTAATCCGTATTTGCT (site ATTGCGGCTAG)”, the “recombinant UMI read abundance (log10)” value was determined as 0.00273.

On to “CTTGCGGCATGGACCGGTTTTCCCGGTAATCCGTATTTGCT (site CTTGCGGCTAG)”, for which the “recombinant UMI read abundance (log10)” value is 0.82.

Take “CTTGCGGCATGGACCGGTTTTCCCGGTAATCCGTATTTGCT (site GTTGCGGCTAG)”: the “recombinant UMI read abundance (log10)” value worked out at 0.00591.

“CTTGCGGCATGGACCGGTTTTCCCGGTAATCCGTATTTGCT (site TTTGCGGCTAG)”: the “recombinant UMI read abundance (log10)” value stood at 0.

Take “CTTGCGGCATGGACCGGTTTTCCCGGTAATCCGTATTTGGG (site CTTGCGGCTCC)”: the “recombinant UMI read abundance (log10)” value was 0.0147.

“CTTGGTCCATGGACCGGTTTTCCCGGTAATCCGTATTTGCG (site CTTGGTCCTCG)”: the “recombinant UMI read abundance (log10)” value was 0.00731.

In the case of “CTTGTGTCATGGACCGGTTTTCCCGGTAATCCGTATTTGGG (site CTTGTGTCTCC)”, the “recombinant UMI read abundance (log10)” value was 0.208.

For the sequence “GAAAACCCATGGACCGGTTTTCCCGGTAATCCGTATTTGAT (site GAAAACCCTAT)”, the “recombinant UMI read abundance (log10)” value came to 0.

Take “GAAAAGGCATGGACCGGTTTTCCCGGTAATCCGTATTTGTT (site GAAAAGGCTAA)”: the “recombinant UMI read abundance (log10)” value is 2.58.

Turning to “GAAAATGCATGGACCGGTTTTCCCGGTAATCCGTATTTGAG (site GAAAATGCTCT)”, the “recombinant UMI read abundance (log10)” value was found to be 2.25.

Take “GAAACCACATGGACCGGTTTTCCCGGTAATCCGTATTTGGT (site GAAACCACTAC)”: the “recombinant UMI read abundance (log10)” value came to 0.48.

As for “GAAAGTCCATGGACCGGTTTTCCCGGTAATCCGTATTTGGA (site GAAAGTCCTTC)”, the “recombinant UMI read abundance (log10)” value was determined as 0.0128.
